According to patent US10597398B2, “Suppression and regeneration promoting effect of low molecular weight compound on cancer and fibrosis” (NATIONAL UNIVERSITY CORPORATION TOTTORI UNIVERSITY, priority 2015, dated 2020):

Tests used:
[1] = tested on: HSC2 cells (squamous cell carcinoma cells); experiment: Growth of squamous cell carcinoma cells (Cell Counting Kit-8); format: cell-based; details: HSC2 cells, 0, 24, 72, 96 h
Experimental: HSC2 cells (squamous cell carcinoma cells) were seeded at 2.5×10^3 cells/well of a 96-well plate (TPP Techno Plastic Products AG, Trasadingen, Switzerland). Next, 0, 24, 72, and 96 h after that, 100 μL of 10% Cell Counting Kit-8 (DOJINDO LABORATORIES, Kumamoto) was added. The mixture was incubated at 37° C. and its absorbance (at a measurement wavelength of 450 nm/control wavelength of 600 nm) was measured by using a Sunrise Rainbow RC (Tecan Group Ltd., Mannedorf, Switzerland).

[2] = tested on: CD44-expressing HSC2 cells; experiment: CD44-expressing cells in HSC2 cells (cell sorter analysis); format: cell-based, human; details: 48 h, 25 μM IC-2 or 0.5 μM 5-FU, 83.9% without treatment
Experimental: In addition, HSC2 cells were seeded at 5×10^5 cells/10-cm cell culture dish (TPP). After 24 h, the cells were treated with 0.5 μM of 5-FU or 25 μM of IC-2. Also prepared were cells without low-molecular-weight compound treatment (0 μM). After additional 48 h, the respective cells were harvested. As a primary antibody, used was a mouse anti-human CD44 antibody (Abcam Ltd., Cambridge, UK). Then, Alexa Fluor 488-labeled goat anti-mouse IgG (H+L) (Life Technologies Corp., Carlsbad, Calif.) was used. After that, a cell sorter BD bioscience FACS Aria (Becton, Dickinson and Company, Franklin Lakes, N.J.) was used for analysis.

[3] = tested on: DLD-1 cells (colon cancer cells); experiment: Growth of colon cancer cells (Cell Counting Kit-8); format: cell-based; details: 10 or 50 μM, 48 h
Experimental: DLD-1 cells (colon cancer cells) were cultured on 10-cm cell culture dishes (TPP Techno Plastic Products AG, Trasadingen, Switzerland) by using DMEM under conditions at 5% CO2, 37° C., and 100% humidity. For passage, 70 to 90% confluent cells were washed with PBS(−), and 300 μL of 0.25% Trypsin/1 mM EDTA per 2 mL of PBS(−) was added thereto. The cells were incubated at 37° C. for 5 min and were then detached. After that, 5 mL of DMEM was used to collect the cells. The cells collected were centrifuged at 1000 rpm for 3 min to remove a supernatant. The cells were then suspended in DMEM and were split at a 1:4 ratio.
DLD-1 cells were seeded at 5×10^5 cells/well of a 96-well plate (TPP). After 24 h, the cells were treated with 0, 10, or 50 μM of IC-2. Next, 48 h after the treatment, 100 μL of 10% Cell Counting Kit-8 (DOJINDO LABORATORIES, Kumamoto) was added. The mixture was incubated at 37° C. and its absorbance (at a measurement wavelength of 450 nm/control wavelength of 600 nm) was measured by using a Sunrise Rainbow RC (Tecan Group Ltd., Mannedorf, Switzerland).

Wnt/β-catenin signal = details: as described in Patent Literature 1; cited from earlier work

SMILES: O=C1C(Cc2ccccc2)N2C(=O)CCN(C(=O)NCc3ccccc3)C2CN1Cc1cccc2ccccc12 (stereo not shown) [IC-2]
- growth inhibitory effect on squamous cell carcinoma cells [1]: exhibited a growth inhibitory effect
- percentage of CD44-expressing cells [2]: 71.4%
- growth inhibitory effect on colon cancer cells [3]: elicited a growth inhibitory effect
- Wnt/β-catenin signal in a mesenchymal stem cell and differentiation into hepatocytes (Wnt/β-catenin signal): inhibit a Wnt/β-catenin signal in a mesenchymal stem cell, thereby inducing differentiation of the mesenchymal stem cell into hepatocytes
